Reference: patent US6337325B1, “Combined preparation for the therapy of immune diseases” (Hoechst Aktiengesellschaft, priority 1994, dated 2002)
Read-outs that look alike come from different tables or passages of the source.

Key:
[1] = test system: patient with pronounced psoriasis; assay: Topical application to a single patient with pronounced psoriasis, subjective symptom scores; type: in vivo, human; conditions: after a 6-week application
Protocol: The effect of the topical application of a combination according to the invention to a single patient with pronounced psoriasis was studied in a parallel comparison. For this purpose the test substances pentoxifylline and diltiazem, dissolved in 30 ml of polypropylene glycol/ethanol/water (1:1:1. v/v), were incorporated, individually or together, in a final concentration of 2% (pentoxifylline) or 1% (diltiazem), into a commercially available creamy skin care product (Nivea lotion), ultimately giving the following 4 different formulations:
A) lotion without test substance (=vehicle control)
B) lotion with 2% of pentoxifylline
C) lotion with 1% of diltiazem
D) lotion with 2% of pentoxifylline+1% of diltiazem
Twice a day for 6 weeks, these 4 formulations were applied locally, with rubbing, to areas of skin on the patient's trunk which were affected by pronounced symptoms of psoriasis and had previously been precisely defined, particular care being taken to ensure that the same formulation was always applied to the same area of skin. The therapeutic result was monitored visually and evaluated by means of the following subjective scores: […]

[2] = test system: PHA-induced release of TNFα from peripheral blood mononuclear cells; assay: Inhibition of PHA-induced release of TNFα from PBMC (L929 cytotoxicity read-out); type: cell-based; conditions: Homo sapiens
Protocol: (§1) For all the in vitro tests, peripheral blood mononuclear cells (PBMC) were obtained from the blood of healthy donors by density gradient centrifugation in Ficoll-Hypaque (Pharmacia, Uppsala). This isolation step separated monocytes and lymphocytes from the other blood constituents. Further working-up of this PBMC fraction was carried out in accordance Ad with the requirements of the test preparations described below.
(§2) The resulting PBMC were incubated on microtiter plates together with phythemagglutinin (PHA, 5 μg/ml). […] Incubation was carried out at 37° C. in 5% CO2 with protection from the light. After 20 hours (h) (TNFα determination), 24 h (IL-2 determination) or 120 h (IFNγ determination), the cell supernatants were tested for cytokine release. TNFα was determined via its cytotoxicity to L929 cells, IL-2 was quantified via the proliferation of CTL-L6 cells and IFNγ was determined using a sandwich ELISA.
The following test examined the dependence of the inhibition of PHA-induced cytokine formation on the type of so-called “calcium antagonist” added.

[3] = test system: T lymphocytes stimulated via CD28/PMA; assay: T lymphocyte proliferation (3H-thymidine), stimulation via CD28/PMA; type: cell-based, human
Protocol: as §1
(§3) The PBMC fraction was further fractionated to give pure T lymphocytes. This was done using Lympho-KWIK-T, a mixture of monoclonal antibodies from anti-monocytes and anti-B cells and complement, together with a mixture of monoclonal anti-NK and anti-monocyte antibodies with Leu 11 b (anti-CD16, IgM) and Leu 7 (anti-CD57, IgM) (One Lambda Inc., Los Angeles, Calif., USA). The isolation and purification of the T lymphocytes from the PBMC fraction was effected by means of the following process steps:
(§4) Monocytes are removed by cold agglutination.
30×10^6 of the cells obtained are incubated with 0.8 ml of Lympho-KWIK-T for 1 hour at 37° C.
The cells are washed three times and then incubated for 30 minutes at 4° C. with the mixture of monoclonal anti-NK and anti-monocyte antibodies.
The cells are washed once and re-incubated with 0.8 ml of Lympho-KWIK-T for 1 hour at 37° C.
After 64 h of incubation the cells were treated in each case with 1 μCi of ^3H-thymidine; 8 h later they were collected on glass fiber filters and the incorporated radioactivity was measured in a β counter.
The percentage inhibition of the T lymphocyte proliferation by the test substances was compared with a control not containing test substance, subtracting a basal value without monoclonal antibodies. The mean value from 4 parallel preparations was used for the evaluation.

[4] = test system: PHA-induced release of IFNγ from peripheral blood mononuclear cells; assay: Inhibition of PHA-induced release of IFNγ from PBMC (sandwich ELISA); type: cell-based; conditions: Homo sapiens, PHA 5 μg/ml, 120 h
Protocol: as §1, §2

[5] = test system: PHA-induced release of IL-2 from peripheral blood mononuclear cells; assay: Inhibition of PHA-induced release of IL-2 from PBMC (CTL-L6 proliferation read-out); type: cell-based; conditions: Homo sapiens
Protocol: as §1, §2

[6] = test system: T lymphocytes stimulated via CD3/PMA; assay: T lymphocyte proliferation (3H-thymidine), stimulation via CD3/PMA; type: cell-based; conditions: Homo sapiens, 72 h
Protocol: as §1, §3, §4
30×10^6 of the cells obtained are incubated with 0.8 ml of Lympho-KWIK-T for 1 hour at 37° C. […]
After 64 h of incubation the cells were treated in each case with 1 μCi of ^3H-thymidine; 8 h later they were collected on glass fiber filters and the incorporated radioactivity was measured in a β counter. […]

| Compound | psoriasis symptoms relative to the initial situation, in words [1] | inhibition at 10 µM ([2]; Table 2, test substance alone, 10 μmol/l, read-out: percentage inhibition of the PHA-induced release of TNFα, test substance alone) | inhibition at 0.1 µM ([3]; Homo sapiens, T-lymphocyte, 0.1 μmol/l, T lymphocytes, 72 h) | activity on T lymphocyte activation via the CD28-dependent mechanism, in words ([3]; single substance, stimulation via CD28) | inhibition at 0.1 µM ([4]; 0.1 μmol/l final concentration) | inhibition at 0.1 µM ([5]; read-out: IL-2 % inhibition, 0.1 μmol/l final concentration, PHA 5 μg/ml, 24 h) | inhibition at 0.1 µM ([6]; 0.1 μmol/l) | inhibition at 0.1 µM ([2]; 0.1 μmol/l final concentration, PHA 5 μg/ml, 20 h) | inhibition at 40 µM ([3]; Homo sapiens, T-lymphocyte, 40 μmol/l, T lymphocytes, 72 h) | inhibition at 50 µM ([4]; 50 μmol/l final concentration) | inhibition at 50 µM ([5]; read-out: IL-2 % inhibition, 50 μmol/l final concentration, PHA 5 μg/ml, 24 h) | inhibition at 40 µM ([6]; 40 μmol/l) | inhibition at 50 µM ([2]; 50 μmol/l final concentration, PHA 5 μg/ml, 20 h, read-out: TNFα % inhibition) | inhibition at 50 µM ([2]; Table 2, pentoxifylline alone, 50 μmol/l, read-out: percentage inhibition of the PHA-induced release of TNFα, pentoxifylline) |
| --- | --- | --- | --- | --- | --- | --- | --- | --- | --- | --- | --- | --- | --- | --- |
| COc1ccc([C@@H]2Sc3ccccc3N(CCN(C)C)C(=O)[C@@H]2OC(C)=O)cc1 [Diltiazem, diltiazem] | practically no visible difference | 39 ± 13% |  |  |  |  |  |  |  |  |  |  |  |  |
| CCCC(=O)Nc1ncnc2c1ncn2[C@@H]1O[C@@H]2COP(=O)(O)O[C@H]2[C@H]1OC(=O)CCC [db-cAMP, dibutyryl-cAMP] |  |  | 11 ± 6% | practically inactive | 15 ± 8% | 12 ± 4% | 16 ± 6% | 31 ± 13% |  |  |  |  |  |  |
| CC(=O)CCCCn1c(=O)c2c(ncn2C)n(C)c1=O [pentoxifylline] | improved only moderately |  |  |  |  |  |  |  | 28 ± 8% | 20 ± 9% | 14 ± 9% | 21 ± 7% | 28 ± 10% | 28 ± 10% |
